According to ChEMBL document CHEMBL1201862, “PubChem BioAssay data set” (2004):
Calls of active or inactive are those of the source.

Key:
Trypsin = Trypsin (Sus scrofa, UniProt P00761); assay: porcine trypsin inhibitors, dose response, selectivity assay for Rce1 protease inhibitor project, biochemical, quenched peptide fluorescence, cherry-pick (AID 488789)
[1] = molecular target: T1, Heat shock factor protein 1 (Mus musculus, UniProt P38532); assay: inhibition of MG132-induced HSE-luciferase signal, confirmation, cell-based, NIH3T3, luminescence, dose retest (AID 2382); assay type: functional;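 also: NIH3T3 fibroblasts with HSF1-driven luciferase reporter stressed by proteasome inhibitor MG132; luminescence from HSF1-driven luciferase expression after 8 hours of MG132 stress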
T1 sequence (P38532 whole entry): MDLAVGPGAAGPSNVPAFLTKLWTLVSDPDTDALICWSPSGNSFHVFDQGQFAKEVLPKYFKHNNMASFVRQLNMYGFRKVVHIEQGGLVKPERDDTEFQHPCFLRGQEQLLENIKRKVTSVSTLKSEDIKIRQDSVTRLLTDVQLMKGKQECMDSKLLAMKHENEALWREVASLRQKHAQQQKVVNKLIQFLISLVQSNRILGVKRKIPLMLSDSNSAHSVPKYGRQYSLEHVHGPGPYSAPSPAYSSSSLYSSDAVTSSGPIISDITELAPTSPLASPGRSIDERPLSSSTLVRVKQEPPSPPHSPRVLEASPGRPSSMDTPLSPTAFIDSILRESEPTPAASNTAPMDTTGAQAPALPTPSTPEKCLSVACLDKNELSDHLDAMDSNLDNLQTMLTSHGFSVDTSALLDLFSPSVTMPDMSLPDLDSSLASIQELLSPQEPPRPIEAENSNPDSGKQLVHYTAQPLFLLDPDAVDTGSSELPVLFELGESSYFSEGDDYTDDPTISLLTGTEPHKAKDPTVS

CAAX prenyl protease 2 [2] = molecular target: T2, CAAX prenyl protease 2 (Homo sapiens, UniProt Q9Y256); assay: human Rce1 protease inhibitors, dose response, biochemical, yeast membranes, quenched-peptide fluorescence, cherry-pick (AID 588849)
T2 sequence (Q9Y256 whole entry): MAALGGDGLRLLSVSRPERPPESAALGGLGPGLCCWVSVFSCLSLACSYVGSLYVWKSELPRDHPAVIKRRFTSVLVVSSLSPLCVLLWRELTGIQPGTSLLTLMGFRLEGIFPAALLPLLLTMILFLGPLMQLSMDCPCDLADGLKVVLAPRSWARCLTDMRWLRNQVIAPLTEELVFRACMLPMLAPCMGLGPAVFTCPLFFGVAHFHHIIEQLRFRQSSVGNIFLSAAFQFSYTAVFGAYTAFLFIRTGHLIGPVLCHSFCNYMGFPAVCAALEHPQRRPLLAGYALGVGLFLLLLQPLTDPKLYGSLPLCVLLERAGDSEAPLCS

[3] = A549 cell cytotoxicity, dose response, cytotoxicity control, plate reader, cherry-pick, antagonist series (AID 743412); assay type: functional, cell-based
[4] = inhibitors of firefly luciferase expression or activity, dose response, H4 neuroglioma cells, luminescence (AID 1990); assay type: functional, cell-based
[5] = MC4R antagonists, dose response, counter-screen for LGR2 antagonist project, cell-based, plate reader, cherry pick (AID 743444); assay type: functional;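 also: transfected HEK 293 cells stimulated with alpha-MSH peptide; potency of inhibitors of the alpha-MSH evoked signal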
[6] = LGR2 antagonists, dose response, cell-based, HEK293, CRE-luciferase reporter, cherry pick, set 2 (AID 743343); assay type: functional;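 also: transfected cells were stimulated with diluted bursicon conditioned medium after compound addition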
[7] = inhibitors of SNCA 5'UTR-driven reporter translation, confirmation, H4 neuroglioma cells, luminescence (AID 1988); assay type: functional, cell-based
HEK293 [8] = assay: inhibitors of LMP1-driven NF-kB reporter, dose response, cell-based, HEK293, luciferase, cherry-pick (AID 588343); assay type: functional; settings: Homo sapiens
[9] = Luminescence Cell-Based Dose Response HTS to Identify Inhibitors of 5'UTR Stem-Loop Driven Prion Protein mRNA Translation in H4 Neuroglioblastoma Cells. [Related pubchem assays: 1827 (Project Summary), 1813 (Primary HTS)]; assay type: functional
[10] = HEK293 cell cytotoxicity, dose response, cytotoxicity control, plate reader, cherry-picked samples (AID 743446); assay type: functional, cell-based
cells = assay type: functional
[11] = Vero E6 cell cytotoxicity, dose response, cytotoxicity control for non-replicating M. tuberculosis project, secondary assay (AID 492998); assay type: functional, VeroE6; settings: Vero C1008
[12] = THP-1 cell cytotoxicity, dose response, cytotoxicity control for non-replicating M. tuberculosis project (AID 489025); assay type: functional
INS1 = assay: beta cell apoptosis inhibitors, cytokine rescue, dose response, luminescence, retest (AID 449756); assay type: functional, cell-based; settings: Rattus norvegicus;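 also: cell death triggered by IL-1 beta plus TNF-alpha plus IFN-gamma mixture; protective hits raise ATP signal compared with cytokine alone wells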
[13] = molecular target: T3, Ubiquitin-conjugating enzyme E2 N (Homo sapiens, UniProt P61088); assay type: functional
T3 sequence (P61088 whole entry): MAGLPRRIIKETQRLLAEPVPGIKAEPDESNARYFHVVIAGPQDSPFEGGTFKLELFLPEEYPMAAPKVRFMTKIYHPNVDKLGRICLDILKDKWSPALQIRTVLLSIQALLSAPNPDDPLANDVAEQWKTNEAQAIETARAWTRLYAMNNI

[14] = molecular target: T3, Ubiquitin-conjugating enzyme E2 N; assay type: functional; remark: listed apart in the source
Bcl-2-related protein A1 = molecular target: T4, Bcl-2-related protein A1 (Mus musculus, UniProt Q07440); assay type: functional;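 also: confirmatory dose–response counterscreen on Bfl-1, used to check hits from a UBC13 polyubiquitin inhibitor campaign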
T4 sequence (Q07440 whole entry): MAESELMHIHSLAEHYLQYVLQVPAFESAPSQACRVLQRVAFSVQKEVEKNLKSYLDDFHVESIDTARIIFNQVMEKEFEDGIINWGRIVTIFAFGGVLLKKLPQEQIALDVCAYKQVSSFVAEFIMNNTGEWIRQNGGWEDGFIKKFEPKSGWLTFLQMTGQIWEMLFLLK

Streptococcus = assay: Group A Streptococcus viability loss, dose response, counter-screen for streptokinase expression inhibitor project, luminescence, BacTiterGlo (AID 1915); assay type: functional, organism-based;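 also: potency for reduction of bacterial viability or growth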
[15] = molecular target: T5, RNA-binding protein pos-1 (Caenorhabditis elegans, UniProt G5EF15); assay: inhibitors of POS-1/mex-3 RNA binding, dose response, biochemical, fluorescence polarization (AID 1964);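 also: purified POS-1 fused to maltose binding protein made in E. coli; potency of compounds blocking POS-1 binding to fluorescent RNA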
T5 sequence (G5EF15 whole entry): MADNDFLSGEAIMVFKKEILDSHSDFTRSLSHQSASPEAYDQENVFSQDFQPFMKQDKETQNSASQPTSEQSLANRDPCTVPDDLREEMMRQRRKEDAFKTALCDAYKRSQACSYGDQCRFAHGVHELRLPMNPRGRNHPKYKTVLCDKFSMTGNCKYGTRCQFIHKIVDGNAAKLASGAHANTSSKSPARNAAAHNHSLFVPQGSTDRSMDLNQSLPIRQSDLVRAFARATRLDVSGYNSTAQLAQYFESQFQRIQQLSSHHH

[16] = tested on: Streptococcus sp. 'group A'; assay: growth inhibition of control SK(-) GAS strain, dose response, counter-screen for streptokinase expression inhibitor project, luminescence, kanamycin, BacTiterGlo, confirmation (AID 1900); assay type: functional, organism-based
[17] = molecular target: T6, Endoribonuclease toxin MazF (Escherichia coli K-12, UniProt P0AE70); assay: MazF toxin RNase activators, dose response, biochemical, fluorescence, single-stranded RNA substrate, uHTS hits (AID 588481); assay type: functional
T6 sequence (P0AE70 whole entry): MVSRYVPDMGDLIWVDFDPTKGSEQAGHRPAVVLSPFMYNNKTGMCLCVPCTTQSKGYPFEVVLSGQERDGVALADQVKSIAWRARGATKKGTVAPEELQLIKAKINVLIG

[18] = molecular target: T6, Endoribonuclease toxin MazF; assay: fluorescent RNA oligo signal without MazF, dose response, counter-screen for MazEF activator project, biochemical, fluorescence, single-stranded RNase substrate (AID 588502); assay type: functional
HEK293 [19] = assay: NOD2 signaling inhibitors in MDP-stimulated cells, cell-based, uHTS, luminescence (AID 2001); assay type: functional; settings: Homo sapiens
HEK293 [20] = assay: cells; assay type: functional, cell-based; settings: Homo sapiens
HEK293 [21] = assay: NOD1 signaling inhibitors, primary screen, cell-based, luminescence, uHTS (AID 1578); assay type: functional; settings: Homo sapiens
HEK293 [22] = assay: cells; assay type: functional, cell-based; settings: Homo sapiens; remark: listed apart in the source
[23] = molecular target: T7, Corticotropin-releasing factor receptor 2/Corticotropin-releasing factor-binding protein (Homo sapiens, UniProt P24387+Q13324); assay: activators of CRF receptor 2 with binding protein – uHTS hits, confirmation (AID 602473); assay type: functional; settings: read-out: EC50_Mean
T7 sequence (Q13324 whole entry): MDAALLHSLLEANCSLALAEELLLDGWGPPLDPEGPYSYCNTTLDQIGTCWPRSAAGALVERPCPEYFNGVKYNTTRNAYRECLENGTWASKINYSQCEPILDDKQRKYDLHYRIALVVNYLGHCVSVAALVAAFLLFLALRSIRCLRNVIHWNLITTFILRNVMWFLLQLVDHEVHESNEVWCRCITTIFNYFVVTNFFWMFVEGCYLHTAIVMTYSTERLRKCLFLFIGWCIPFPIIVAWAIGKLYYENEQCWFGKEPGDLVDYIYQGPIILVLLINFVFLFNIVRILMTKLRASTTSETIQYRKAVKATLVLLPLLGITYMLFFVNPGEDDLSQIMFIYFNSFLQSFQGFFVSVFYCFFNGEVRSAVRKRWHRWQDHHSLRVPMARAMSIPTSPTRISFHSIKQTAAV
T7 sequence (P24387 whole entry): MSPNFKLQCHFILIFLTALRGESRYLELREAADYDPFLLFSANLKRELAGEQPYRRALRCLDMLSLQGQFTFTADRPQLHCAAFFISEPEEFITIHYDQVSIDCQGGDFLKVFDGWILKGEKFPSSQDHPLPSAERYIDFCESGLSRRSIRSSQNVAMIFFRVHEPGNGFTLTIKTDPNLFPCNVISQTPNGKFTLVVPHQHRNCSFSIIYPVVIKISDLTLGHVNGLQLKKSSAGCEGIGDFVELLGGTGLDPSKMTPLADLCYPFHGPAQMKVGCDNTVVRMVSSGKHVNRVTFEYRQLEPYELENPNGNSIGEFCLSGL

CAAX prenyl protease 2 [24] = molecular target: T8, CAAX prenyl protease 2 (Saccharomyces cerevisiae S288c, UniProt Q03530); assay type: biochemical
T8 sequence (Q03530 whole entry): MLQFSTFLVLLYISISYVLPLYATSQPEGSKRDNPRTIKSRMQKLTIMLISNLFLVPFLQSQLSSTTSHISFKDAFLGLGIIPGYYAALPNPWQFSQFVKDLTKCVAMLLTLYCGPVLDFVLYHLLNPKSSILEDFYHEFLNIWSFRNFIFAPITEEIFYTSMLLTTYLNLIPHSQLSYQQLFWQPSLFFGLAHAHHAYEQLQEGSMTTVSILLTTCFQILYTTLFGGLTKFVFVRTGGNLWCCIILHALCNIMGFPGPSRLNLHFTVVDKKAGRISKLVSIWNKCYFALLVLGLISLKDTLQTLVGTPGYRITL

[25] = molecular target: 72 kDa type IV collagenase (Homo sapiens, UniProt P08253); assay: Dose Response validation of uHTS RPN11 inhibitor hits using a MMP-2 Fluorescence assay.; assay type: functional
Chain of 72 kDa type IV collagenase (P08253 whole entry): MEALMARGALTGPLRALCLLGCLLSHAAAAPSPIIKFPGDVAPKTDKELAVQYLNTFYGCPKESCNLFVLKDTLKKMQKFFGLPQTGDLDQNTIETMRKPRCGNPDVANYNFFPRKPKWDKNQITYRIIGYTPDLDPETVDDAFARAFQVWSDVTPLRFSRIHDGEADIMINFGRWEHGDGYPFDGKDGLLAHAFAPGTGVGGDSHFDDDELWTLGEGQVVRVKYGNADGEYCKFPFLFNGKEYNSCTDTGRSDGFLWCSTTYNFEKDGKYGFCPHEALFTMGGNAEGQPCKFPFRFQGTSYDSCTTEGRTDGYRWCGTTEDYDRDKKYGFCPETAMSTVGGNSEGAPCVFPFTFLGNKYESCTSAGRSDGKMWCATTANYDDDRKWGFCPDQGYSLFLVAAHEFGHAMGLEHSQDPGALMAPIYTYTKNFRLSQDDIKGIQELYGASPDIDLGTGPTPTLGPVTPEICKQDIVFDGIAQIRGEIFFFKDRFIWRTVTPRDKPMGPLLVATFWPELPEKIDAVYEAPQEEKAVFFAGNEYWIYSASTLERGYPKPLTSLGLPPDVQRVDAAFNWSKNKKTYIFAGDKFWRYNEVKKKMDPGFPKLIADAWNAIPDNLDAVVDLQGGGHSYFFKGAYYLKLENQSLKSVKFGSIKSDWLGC

[26] = molecular target: 26S proteasome non-ATPase regulatory subunit 14 (Homo sapiens, UniProt O00487); assay: inhibition of proteasome subunit RPN11 – biochemical, fluorescence polarization, uHTS hits, confirmation (AID 602368); assay type: functional
Chain of 26S proteasome non-ATPase regulatory subunit 14 (O00487 whole entry): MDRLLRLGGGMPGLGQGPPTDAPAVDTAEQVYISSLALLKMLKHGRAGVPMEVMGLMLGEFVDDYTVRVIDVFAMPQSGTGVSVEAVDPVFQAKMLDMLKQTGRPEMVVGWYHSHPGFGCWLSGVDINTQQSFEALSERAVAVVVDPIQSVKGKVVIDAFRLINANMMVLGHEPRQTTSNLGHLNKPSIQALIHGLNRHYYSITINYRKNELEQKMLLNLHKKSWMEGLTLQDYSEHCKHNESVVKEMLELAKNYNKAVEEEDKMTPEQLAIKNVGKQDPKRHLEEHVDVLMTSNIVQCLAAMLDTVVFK

Prothrombin = Prothrombin (Bos taurus, UniProt P00735); assay: thrombin inhibition, dose response, biochemical, fluorescence polarization, uHTS hits (AID 602369); assay type: functional

Chain of Trypsin (P00761 whole entry): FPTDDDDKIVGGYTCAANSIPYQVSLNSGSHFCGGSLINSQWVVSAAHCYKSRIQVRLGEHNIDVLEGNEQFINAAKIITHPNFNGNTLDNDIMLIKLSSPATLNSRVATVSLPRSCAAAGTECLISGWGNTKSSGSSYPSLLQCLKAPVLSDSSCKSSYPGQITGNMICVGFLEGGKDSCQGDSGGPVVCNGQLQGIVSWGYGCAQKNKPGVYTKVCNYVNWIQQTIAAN

COc1ccc(C)c2sc(NC(=O)C3=COCCO3)nc12
AC50 (Trypsin): 18.8 µM (active)
EC50 [1]: > 195 µM (not active)
AC50 (CAAX prenyl protease 2 [2]): 13.4 µM (active)

COc1cccc(-c2nc3cc(N4CCN(C)CC4)ccc3[nH]2)c1
AC50 [3]: > 52 µM (inactive)
EC50 [4]: 9.73 µM (inconclusive)
AC50 [5]: 1.57 µM (active)
AC50 [6]: 2.55 µM (active)
EC50 [7]: 9.34 µM (inconclusive)
AC50 (HEK293 [8]): 0.857 µM (active)
EC50 [1]: < 0.16 µM (active)
EC50 [9]: 5.7 µM (active)
AC50 [10]: > 52 µM (inactive)

Cc1cc(Cl)ccc1OCC(=O)NNC(=O)c1cnccn1
IC50 (cells): 5.5 µM (active)
CC50 [11]: 13.7 µM (active)
CC50 [12]: > 40 µM (active)

CCC(=O)NC(c1cc(Cl)c2cccnc2c1O)C1CC1 (stereo not drawn)
AC50 (INS1): 1.89 µM (active)
AC50 (HEK293 [8]): 10.1 µM (active)

Cc1ccc(C(C(=O)NCC2CCCO2)N(C(=O)c2snc(C(N)=O)c2N)c2ccc3c(c2)OCCO3)cc1 (stereo not drawn)
IC50 [13]: 13.1 µM (active)
IC50 [14]: 12.6 µM (active)
IC50 (Bcl-2-related protein A1): > 20 µM (inactive)

CC/C(=C\C=C\[C@@H]1C=C[C@@H]2CCC[C@H]2[C@@H]1C(=O)c1ccc[nH]1)[C@@H]1O[C@@H]([C@@H](C)C(=O)O)CC[C@@H]1C
EC50 (Streptococcus): 0.147 µM (active)
EC50 [4]: 14.2 µM (active)
EC50 [7]: > 120 µM (not active)
EC50 [9]: 14.4 µM (active)
EC50 [15]: > 300 µM (inconclusive)
CC50 [11]: 16.5 µM (active)
EC50 [16]: 0.202 µM (active)
CC50 [12]: 12.4 µM (active)

Cc1ccc2c(n1)sc1c(-c3ccccc3)c(C#N)c(N)nc12
EC50 [17]: > 99 µM (inactive)
EC50 [18]: > 99 µM (inactive)

Cc1nn(-c2ccccc2)c2nc(N)c(C(N)=O)cc12
AC50 (Trypsin): 37.9 µM (active)
AC50 (CAAX prenyl protease 2 [2]): 21.3 µM (active)

Nc1c(C(=O)Nc2ccccc2)sc2nc3c(c(-c4ccco4)c12)CCC3
EC50 [17]: 11.3 µM (active)
EC50 [18]: > 99 µM (inactive)

O=C(c1ccc(Cl)cc1)C1CCCN(Cc2ccc3ncccc3c2)C1 (stereo not drawn)
IC50 (HEK293 [19]): 5.78 µM (active)
IC50 (HEK293 [20]): 3.92 µM (active)
EC50 (HEK293 [21]): 4.42 µM (active)
IC50 (HEK293 [22]): 15.5 µM (active)

COc1ccc2nc(-c3ccc(C)cc3)cc(O)c2c1
AC50 (HEK293 [8]): 2.68 µM (active)

Cn1c(=O)c2[nH]c(-c3ccccc3Cl)c(O)c2n(C)c1=O
EC50 [17]: 55.6 µM (inactive)
EC50 [23]: > 53 µM (inactive)
EC50 [18]: 16 µM (active)

COc1ccc(C2=NN(C(=O)CCC(=O)O)C(c3cccs3)C2)cc1 (stereo not drawn)
AC50 (Trypsin): 4.38 µM (active)
AC50 (CAAX prenyl protease 2 [24]): 9.03 µM (active)
AC50 (CAAX prenyl protease 2 [2]): 12.6 µM (active)

O=C(CCN1C(=O)/C(=C\c2cccs2)SC1=S)Nc1ccccn1
IC50 [25]: > 100 µM (inactive)
IC50 [26]: 9.93 µM (active)
IC50 (Prothrombin): 15.1 µM (active)
